Measured values taken from patent US10059689B2, “Substituted heteroaryl compounds and methods of use” (Sunshine Lake Pharma Co., Ltd., priority 2014, dated 2018).

Tests used:
[1] = molecular target: T1, FLT3 (h) (Homo sapiens, UniProt P36888); experiment: FLT3 (h) kinase assay; type: biochemical
T1 construct: purchased Millipore UK Ltd (contract assay service)
T1 sequence (P36888 27-993): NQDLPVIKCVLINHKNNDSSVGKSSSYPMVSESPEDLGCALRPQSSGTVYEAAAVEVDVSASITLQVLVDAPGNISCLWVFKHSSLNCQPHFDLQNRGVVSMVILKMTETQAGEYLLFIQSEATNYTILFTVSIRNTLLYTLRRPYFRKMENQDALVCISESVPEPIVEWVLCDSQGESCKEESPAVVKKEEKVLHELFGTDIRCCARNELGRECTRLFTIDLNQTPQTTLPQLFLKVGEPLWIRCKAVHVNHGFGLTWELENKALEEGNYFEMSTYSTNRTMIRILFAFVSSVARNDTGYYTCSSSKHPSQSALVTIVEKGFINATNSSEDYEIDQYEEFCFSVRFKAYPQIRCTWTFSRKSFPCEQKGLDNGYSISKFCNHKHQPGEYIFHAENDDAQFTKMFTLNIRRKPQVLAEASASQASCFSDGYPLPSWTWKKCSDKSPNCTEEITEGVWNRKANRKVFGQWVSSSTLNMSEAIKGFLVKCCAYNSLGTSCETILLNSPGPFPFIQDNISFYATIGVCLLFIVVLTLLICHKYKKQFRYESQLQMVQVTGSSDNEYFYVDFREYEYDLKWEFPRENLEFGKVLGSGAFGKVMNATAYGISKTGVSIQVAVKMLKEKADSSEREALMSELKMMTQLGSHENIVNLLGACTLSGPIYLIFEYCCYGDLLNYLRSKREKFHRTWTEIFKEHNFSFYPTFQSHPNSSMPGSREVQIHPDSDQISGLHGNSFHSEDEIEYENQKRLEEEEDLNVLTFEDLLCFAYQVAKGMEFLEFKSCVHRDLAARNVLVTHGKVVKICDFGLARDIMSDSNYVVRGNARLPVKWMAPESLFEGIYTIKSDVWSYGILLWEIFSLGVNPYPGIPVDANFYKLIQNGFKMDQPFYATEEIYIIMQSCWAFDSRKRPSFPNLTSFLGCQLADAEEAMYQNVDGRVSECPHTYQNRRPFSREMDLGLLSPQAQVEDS
Method: Kinase assays can be performed by measurement of incorporation of γ-33P ATP into immobilized myelin basic protein (MBP). High binding white 384 well plates (Greiner) are coated with MBP (Sigma #M-1891) by incubation of 60 μL/well of 20 μg/mL MBP in Tris-buffered saline (TBS; 50 mM Tris pH 8.0, 138 mM NaCl, 2.7 mM KCl) for 24 h at 4° C. Plates are washed 3× with 100 μL TBS. Kinase reactions are carried out in a total volume of 34 μL in kinase buffer (according to the need to make, for example, 5 mM Hepes pH 7.6, 15 mM NaCl, 0.01% bovine gamma globulin (Sigma #I-5506), 10 mM MgCl2, 1 mM DTT, 0.02% TritonX-100). Compound dilutions are performed in DMSO and added to assay wells to a final DMSO concentration of 1%. Each data point is measured in duplicate, and at least two duplicate assays are performed for each individual compound determination. Enzyme is added to final concentrations of 10 nM or 20 nM, for example. A mixture of unlabeled ATP and γ-33P ATP is added to start the reaction (2×10^6 cpm of γ-33P ATP per well (3000 Ci/mmole) and 10 μM unlabeled ATP, typically. The reactions are carried out for 1 h at room temperature with shaking Plates are washed 7× with TBS, followed by the addition of 50 μL/well scintillation fluid (Wallac). Plates are read using a Wallac Trilux counter. This is only one format of such assays; various other formats are possible, as known to one skilled in the art.
(§1) The above assay procedure can be used to determine the IC50 for inhibition and/or the inhibition constant, Ki. The IC50 is defined as the concentration of compound required to reduce the enzyme activity by 50% under the condition of the assay. The IC50 value is estimated by preparing a 10 point curve using a ½ log dilution series (for example, a typical curve may be prepared using the following compound concentrations: 3 μM, 1 μM, 0.3 μM, 0.1 μM, 0.03 μM, 0.01 μM, 0.003 μM, 0.001 μM, 0.0003 μM and 0 μM).
(§2) FLT3 (h) is incubated with 8 mM MOPS pH 7.0, 0.2 mM EDTA, 50 μM EAIYAAPFAKKK, 10 mM MgAcetate and [γ-^33P-ATP] (specific activity approx. 500 cpm/pmol, concentration as required). The reaction is initiated by the addition of the MgATP mix. After incubation for 40 minutes at room temperature, the reaction is stopped by the addition of 3% phosphoric acid solution. 10 μL of the reaction is then spotted onto a P30 filtermat and washed three times for 5 minutes in 75 mM phosphoric acid and once in methanol prior to drying and scintillation counting.
(§3) The kinase assays described herein were performed at Millipore UK Ltd, Dundee Technology Park, Dundee DD2 1SW, UK.

[2] = molecular target: T2, JAK1 (h) (Homo sapiens, UniProt P23458); experiment: JAK1 (h) kinase assay; type: biochemical
T2 construct: purchased Millipore UK Ltd (contract assay service)
Method: as §1
as §2, with “JAK1 (h)” for “FLT3 (h)”, “with 20” for “with 8”, “mM Tris/HCl” for “mM MOPS”, “pH 7.5,” for “pH 7.0,”, “EDTA, 500” for “EDTA, 50”, “μM GEEPLYWSFPAKKK,” for “μM EAIYAAPFAKKK,”
as §3

T2 sequence (P23458 whole entry): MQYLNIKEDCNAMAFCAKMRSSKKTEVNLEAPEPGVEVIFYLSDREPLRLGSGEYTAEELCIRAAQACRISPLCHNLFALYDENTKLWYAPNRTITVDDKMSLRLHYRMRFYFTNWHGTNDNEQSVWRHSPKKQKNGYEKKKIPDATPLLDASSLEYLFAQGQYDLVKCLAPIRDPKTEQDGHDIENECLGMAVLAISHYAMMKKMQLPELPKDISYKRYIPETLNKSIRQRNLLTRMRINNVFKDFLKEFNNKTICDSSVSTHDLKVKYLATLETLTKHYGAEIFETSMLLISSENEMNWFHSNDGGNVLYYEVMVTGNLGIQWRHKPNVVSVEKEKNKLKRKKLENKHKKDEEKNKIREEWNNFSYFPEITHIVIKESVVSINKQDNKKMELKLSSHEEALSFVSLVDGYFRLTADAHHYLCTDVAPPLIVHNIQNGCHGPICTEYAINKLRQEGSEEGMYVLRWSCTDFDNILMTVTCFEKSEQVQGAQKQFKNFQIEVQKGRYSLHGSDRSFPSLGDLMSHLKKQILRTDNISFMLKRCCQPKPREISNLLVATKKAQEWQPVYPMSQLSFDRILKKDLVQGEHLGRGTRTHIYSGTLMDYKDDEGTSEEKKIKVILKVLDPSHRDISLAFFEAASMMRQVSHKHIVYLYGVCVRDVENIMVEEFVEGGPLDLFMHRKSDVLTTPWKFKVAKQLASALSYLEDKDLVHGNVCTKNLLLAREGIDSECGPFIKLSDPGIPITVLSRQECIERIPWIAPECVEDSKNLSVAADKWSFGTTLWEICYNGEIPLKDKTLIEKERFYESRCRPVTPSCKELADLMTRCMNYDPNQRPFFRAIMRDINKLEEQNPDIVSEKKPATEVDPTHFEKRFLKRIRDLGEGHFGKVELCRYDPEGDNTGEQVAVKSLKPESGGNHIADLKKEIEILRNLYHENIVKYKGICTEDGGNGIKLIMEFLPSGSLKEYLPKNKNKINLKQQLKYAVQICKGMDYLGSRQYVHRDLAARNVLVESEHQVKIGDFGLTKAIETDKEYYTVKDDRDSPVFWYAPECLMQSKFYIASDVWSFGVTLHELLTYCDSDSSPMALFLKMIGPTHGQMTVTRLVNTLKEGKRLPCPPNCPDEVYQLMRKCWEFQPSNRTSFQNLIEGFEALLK

Row | Structure (SMILES) | IC50 [1] | IC50 [2]
1 | Cc1c2ccc(Nc3ncc(Cl)c(NC4CCN(c5ccc(C#N)nn5)CC4)n3)cc2nn1C [Ex. 12, 6-(4-((5-chloro-2-((2,3-dimethyl-2H-indazol-6-yl)amino)pyrimidin-4-yl)amino)piperidin-1-yl)pyridazine-3-carbonitrile] | 4 nM | < 0.3 nM
2 | Cc1nn(C)cc1Nc1ncc(Cl)c(NC2CCN(c3ccc(C#N)nn3)CC2)n1 [Ex. 11, 6-(4-((5-chloro-2-((1,3-dimethyl-1H-pyrazol-4-yl)amino)pyrimidin-4-yl)amino)piperidin-1-yl)pyridazine-3-carbonitrile] | 21 nM | 0.4 nM
3 | Cc1c2ccc(Nc3ncc(Cl)c(NC4CCN(c5ccc(C#N)cn5)CC4)n3)cc2nn1C [Ex. 4] | 151 nM | 0.3 nM
4 | Cn1cc(Nc2ncc(Cl)c(NC3CCN(c4ccc(C#N)cn4)CC3)n2)cn1 [Ex. 1, 6-(4-((5-chloro-2-((1-methyl-1H-pyrazol-4-yl)amino)pyrimidin-4-yl)amino)piperidin-1-yl)nicotinonitrile] | 6 nM | < 0.3 nM

More lines, now with the values ahead:

Row | IC50 [1] | IC50 [2] | Structure (SMILES)
5 | 42 nM | 0.8 nM | CN(c1nc(Nc2cnn(C)c2)ncc1Cl)C1CCN(c2ccc(C#N)cn2)CC1 [Ex. 5, 6-(4-((5-chloro-2-((1-methyl-1H-pyrazol-4-yl)amino)pyrimidin-4-yl) (methyl)amino)piperidin-1-yl)nicotinonitrile]
6 | 48 nM | 0.4 nM | Cc1cc(Nc2ncc(Cl)c(NC3CCN(c4ccc(C#N)nn4)CC3)n2)nn1C [Ex. 13, 6-(4-((5-chloro-2-((1,5-dimethyl-1H-pyrazol-3-yl)amino)pyrimidin-4-yl)amino)piperidin-1-yl)pyridazine-3-carbonitrile]
7 | 9 nM | < 0.3 nM | Cc1nn(C)cc1Nc1ncc(Cl)c(NC2CCN(c3ccc(C#N)cn3)CC2)n1 [Ex. 10, 6-(4-((5-chloro-2-((1,3-dimethyl-1H-pyrazol-4-yl)amino)pyrimidin-4-yl)amino)piperidin-1-yl)nicotinonitrile]
